Measured values reported in ChEMBL document CHEMBL3124761, “Synthesis and biological evaluation of N,N'-squaramides with high in vivo efficacy and low toxicity: toward a low-cost drug against Chagas disease” (J Med Chem, 2014).
The source made the active and inactive calls. No cut-off for these calls is given here.

How the values were obtained:
[1] = system: Trypanosoma cruzi; assay: Antitrypanosomal activity against epimastigote stage of Trypanosoma cruzi IRHOD/CO/2008/SN3 assessed as mortality at IC25 after 72 hrs by TEM analysis; type: functional, organism-based
[2] = system: Mus musculus; assay: Toxicity in BALB/c albino mouse infected with blood trypomastigote stage of Trypanosoma cruzi assessed as change in urea level in serum at 25 mg/kg, ip administered on day 7 to 12 post-infection measured after day 120 relative to control; type: organism-based; design: dose 25 mg/kg, route intraperitoneal; conditions: in vivo
[3] = system: Trypanosoma cruzi; assay: Antitrypanosomal activity against epimastigote stage of Trypanosoma cruzi IRHOD/CO/2008/SN3 assessed as change in excreted acetate level at IC25 after 96 hrs by 1H NMR analysis relative to control; type: functional
[4] = system: Mus musculus; assay: Toxicity in BALB/c albino mouse infected with blood trypomastigote stage of Trypanosoma cruzi assessed as increase in LDH level in serum at 40 mg/kg, ip administered on day 7 to 12 post-infection measured after day 150 relative to control; type: organism-based; design: dose 40 mg/kg, route intraperitoneal; conditions: in vivo
[5] = system: Trypanosoma cruzi; assay: Antitrypanosomal activity against epimastigote stage of Trypanosoma cruzi IRHOD/CO/2008/SN3 assessed as change in excreted lactate level at IC25 after 96 hrs by 1H NMR analysis relative to control; type: functional
[6] = system: Trypanosoma cruzi; assay: Trypanocidal activity against metacyclic trypomastigote stage of Trypanosoma cruzi infected in BALB/c albino mouse acute chagas disease model assessed as reduction of parasite burden at 25 mg/kg, ip administered on day 7 to 12 post-infection measured on day 14 by ELISA; type: functional, organism-based; design: dose 25 mg/kg
[7] = system: Trypanosoma cruzi; assay: Antitrypanosomal activity against epimastigote stage of Trypanosoma cruzi IRHOD/CO/2008/SN3 assessed as appearance of swollen structure filled with empty vacuoles at IC25 after 72 hrs by TEM analysis; type: functional, organism-based
[8] = Selectivity index, ratio of IC50 for African green monkey Vero cells to IC50 for epimastigote stage of Trypanosoma cruzi IRHOD/CO/2008/SN3; type: toxicity, cell-based; conditions: read-out: Ratio IC50
[9] = system: Trypanosoma cruzi; assay: Trypanocidal activity against blood trypomastigote stage of Trypanosoma cruzi infected in immunosuppressed BALB/c albino mouse chronic chagas disease model assessed as decrease in parasite burden in heart at 40 mg/kg, ip administered on day 7 to 12 post-infection measured on day 150 by PCR analysis relative to control; type: functional; design: scale not given: the % may be the effect or the level left; conditions: route intraperitoneal
[10] = system: Trypanosoma cruzi; assay: Trypanocidal activity against blood trypomastigote stage of Trypanosoma cruzi infected in immunosuppressed BALB/c albino mouse chronic chagas disease model assessed as increase in total Ig-G level at 40 mg/kg, ip administered on day 7 to 12 post-infection measured after day 150 by ELISA; type: functional, organism-based; design: dose 40 mg/kg
[11] = system: Trypanosoma cruzi; assay: Antitrypanosomal activity against amastigote stage of Trypanosoma cruzi IRHOD/CO/2008/SN3 infected in African green monkey Vero cells assessed as reduction of amastigote number per cell at IC25 preincubated for 12 hrs followed by compound washout measured every 48 hrs for 10 days by Neubauer hemocytometric chamber analysis relative to control; type: functional
[12] = system: Mus musculus; assay: Toxicity in BALB/c albino mouse infected with blood trypomastigote stage of Trypanosoma cruzi assessed as increase in total bilirubin level in serum at 40 mg/kg, ip administered on day 7 to 12 post-infection measured after day 150 relative to control; type: organism-based; design: dose 40 mg/kg, route intraperitoneal; conditions: in vivo
[13] = system: Mus musculus; assay: Toxicity in BALB/c albino mouse infected with blood trypomastigote stage of Trypanosoma cruzi assessed as change in creatinephophokinase-MB level in serum at 40 mg/kg, ip administered on day 7 to 12 post-infection measured after day 150 relative to control; type: organism-based; design: dose 40 mg/kg, route intraperitoneal; conditions: in vivo
[14] = system: Trypanosoma cruzi; assay: Antitrypanosomal activity against epimastigote stage of Trypanosoma cruzi IRHOD/CO/2008/SN3 assessed as change in excreted alanine level at IC25 after 96 hrs by 1H NMR analysis relative to control; type: functional
[15] = system: Mus musculus; assay: Toxicity in BALB/c albino mouse infected with blood trypomastigote stage of Trypanosoma cruzi assessed as increase in total bilirubin level in serum at 500 mg/kg, ip relative to control; type: organism-based; design: dose 500 mg/kg, route intraperitoneal; conditions: in vivo
[16] = system: Trypanosoma cruzi; assay: Antitrypanosomal activity against amastigote stage of Trypanosoma cruzi IRHOD/CO/2008/SN3 infected in African green monkey Vero cells assessed as decrease in infection rate at IC25 preincubated for 12 hrs followed by compound washout measured every 48 hrs for 10 days by Neubauer hemocytometric chamber analysis relative to control; type: functional
[17] = system: Trypanosoma cruzi; assay: Antitrypanosomal activity against epimastigote stage of Trypanosoma cruzi IRHOD/CO/2008/SN3 assessed as change in excreted succinate level at IC25 after 96 hrs by 1H NMR analysis relative to control; type: functional
[18] = system: Mus musculus; assay: Toxicity in BALB/c albino mouse infected with blood trypomastigote stage of Trypanosoma cruzi assessed as change in uric acid level in serum at 500 mg/kg, ip; type: organism-based; design: dose 500 mg/kg, route intraperitoneal; conditions: in vivo
[19] = system: Trypanosoma cruzi; assay: Trypanocidal activity against blood trypomastigote stage of Trypanosoma cruzi infected in nonimmunosuppressed BALB/c albino mouse chronic chagas disease model assessed as increase in total Ig-G level at 40 mg/kg, ip administered on day 7 to 12 post-infection measured after day 150 by ELISA; type: functional, organism-based; design: dose 40 mg/kg
[20] = system: Mus musculus; assay: Toxicity in BALB/c albino mouse infected with blood trypomastigote stage of Trypanosoma cruzi assessed as increase in LDH level in serum at 25 mg/kg, ip administered on day 7 to 12 post-infection measured after day 120 relative to control; type: organism-based; design: dose 25 mg/kg, route intraperitoneal; conditions: in vivo
[21] = system: Mus musculus; assay: Toxicity in BALB/c albino mouse infected with blood trypomastigote stage of Trypanosoma cruzi assessed as decrease in ALT/GPT level in serum at 40 mg/kg, ip administered on day 7 to 12 post-infection measured after day 150 relative to control; type: organism-based; design: dose 40 mg/kg, route intraperitoneal; scale not given: the % may be the effect or the level left; conditions: in vivo
[22] = system: Trypanosoma cruzi; assay: Antitrypanosomal activity against trypomastigote stage of Trypanosoma cruzi IRHOD/CO/2008/SN3 assessed as reduction of trypomastigote number per mililiter of culture medium at IC25 preincubated for 12 hrs followed by compound washout measured every 48 hrs for 10 days by Neubauer hemocytometric chamber analysis relative to control; type: functional
[23] = system: Trypanosoma cruzi; assay: Trypanocidal activity against metacyclic trypomastigote stage of Trypanosoma cruzi infected in BALB/c albino mouse acute chagas disease model assessed as inhibition of parasitemia at 25 mg/kg, ip administered on day 7 to 12 post-infection measured every 2 days until day 40 […] relative to control; type: functional; conditions: route intraperitoneal
[24] = system: Trypanosoma cruzi; assay: Antitrypanosomal activity against epimastigote stage of Trypanosoma cruzi IRHOD/CO/2008/SN3 assessed as appearance of enormous reservosomes at IC25 after 72 hrs by TEM analysis; type: functional, organism-based
[25] = system: Mus musculus; assay: Toxicity in BALB/c albino mouse infected with blood trypomastigote stage of Trypanosoma cruzi assessed as change in LDH level in serum at 500 mg/kg, ip relative to control; type: organism-based; design: dose 500 mg/kg, route intraperitoneal; conditions: in vivo
[26] = system: Vero; assay: Cytotoxicity against African green monkey Vero cells assessed as cell viability after 72 hrs by propidium iodide/fluorescein diacetate staining-based flow cytometric analysis; conditions: Chlorocebus sabaeus
[27] = system: Mus musculus; assay: Toxicity in BALB/c albino mouse infected with blood trypomastigote stage of Trypanosoma cruzi assessed as increase in alkaline phosphatase level in serum at 500 mg/kg, ip relative to control; type: organism-based; design: dose 500 mg/kg, route intraperitoneal; conditions: in vivo
[28] = system: Mus musculus; assay: Toxicity in BALB/c albino mouse infected with blood trypomastigote stage of Trypanosoma cruzi assessed as increase in urea level in serum at 500 mg/kg, ip; type: organism-based; design: dose 500 mg/kg, route intraperitoneal; conditions: in vivo
[29] = system: Mus musculus; assay: Toxicity in BALB/c albino mouse infected with blood trypomastigote stage of Trypanosoma cruzi assessed as increase in AST/GOT level in serum at 40 mg/kg, ip administered on day 7 to 12 post-infection measured after day 150 relative to control; type: organism-based; design: dose 40 mg/kg, route intraperitoneal; conditions: in vivo

Which Activity [1] does the source give for `CCCCNc1c(N(C)CCCN(C)C)c(=O)c1=O` here?
The Activity was “Active”.

And the Activity [2]?
Its Activity is < 10%.

What about the Activity [3] of the same compound?
Its Activity is -18.6%.

And the Activity [4]?
The Activity was 10%.

What about the Activity [5] of the same compound?
The Activity was -28.3%.

What about the Activity [6] of the same compound?
The Activity was “Active”.

And the Activity [7]?
Its Activity is “Active”.

What about the selectivity ratio [8] of the same compound?
The selectivity ratio was 48.2.

And the Activity [9]?
The Activity was 83.3%.

What about the Activity [10] of the same compound?
Its Activity is “Active”.

And the “inhibition (INH)” value [11]?
The value was 52%.

And the Activity [12]?
Its Activity is 30%.

And the Activity [13]?
The Activity was < 10%.

And the Activity [14]?
The Activity was -18.5%.

And the Activity [15]?
Its Activity is 40%.

And the “inhibition (INH)” value [16]?
Its value is 67%.

What about the Activity [17] of the same compound?
The Activity was -26.9%.

And the Activity [18]?
The Activity was < 10%.

What about the Activity [19] of the same compound?
Its Activity is “Active”.

And the Activity [20]?
Its Activity is 10%.

What about the Activity [21] of the same compound?
The Activity was 10%.

And the “inhibition (INH)” value [22]?
Its value is 75%.

And the inhibition in vivo at 25 mg/kg [23]?
Its inhibition in vivo at 25 mg/kg is 67%.

And the Activity [24]?
The Activity was “Active”.

And the Activity [25]?
Its Activity is < 10%.

And the IC50 [26]?
The IC50 was 453 µM.

And the Activity [27]?
The Activity was > 50%.

And the Activity [28]?
Its Activity is 30%.

And the Activity [29]?
Its Activity is 10%.
